# Patent US20240315958A1, “METHOD AND DEVICE FOR PROVIDING EFFECTIVE CONTRACEPTION” (Chemo Research, S.L., priority 2023, published 2024)
# Experiments:
# [1] = tested on: women; conditions: POP; desogestrel 0.075 mg, LNG 0.030 mg; cited from earlier work
# [2] = tested on: healthy female subjects aged 18-35 years; assay: Inhibition of ovulation / ovarian activity by Hoogland score, phase 2 clinical trial; assay type: in vivo, human; conditions: 75 μg/day of levonorgestrel, vaginal
# Procedure: The study consists of 4 phases: • Screening phase (minimum of 4 weeks and maximum of 8 weeks if washout cycle was needed). • Pre-treatment cycle (28 days) and randomization. • Treatment cycle consisting of 56 treatment days (2 cycles, 28 days per cycle). • Post-treatment cycle (28 days).
# The inhibition of ovulation was determined by the calculation of the Hoogland Score, which combined the measurement of follicle size in mm by TVU and progesterone/estradiol serum concentration in nmol/L (in case an ovulation was suspected sonographically in TC1 or TC2, it was confirmed by blood progesterone levels and reflected by Landgren Score).
# Primary endpoint analysis: the inhibition of ovulation (Yes, No), was analyzed through a logistic regression model to compare inhibition of ovulation across treatment groups in which BMI was included as covariate. Adjusted odds ratios (ORs) with their two-sided 95% CI were calculated. No hypothesis testing was performed.
# [3] = tested on: healthy female subjects aged 18-35 years; assay: Return of ovulation in post-treatment cycle; assay type: in vivo, human; conditions: FAS; 28-day post-treatment cycle
# [4] = oral administration; cited from earlier work
smiles,measurement,setting,value
C#C[C@]1(O)CC[C@H]2[C@@H]3CCC4=CCCC[C@@H]4[C@H]3C(=C)C[C@@]21CC [desogestrel],Cycles with ovulation inhibited,[1],at least 98%
C#C[C@]1(O)CC[C@H]2[C@@H]3CCC4=CC(=O)CC[C@@H]4[C@H]3CC[C@@]21CC [levonorgestrel],Ovulation inhibition,[2],100%
same,"Participants with return of ovulation during post-treatment, %",[3],more than 80%
same,Bioavailability,[4],~100%
